Test results as given in patent publication EP0561850B1, “7-SUBSTITUTED-6-FLUORO-1,4-DIHYDRO-4-OXO-QUINOLINE-3-CARBOXYLIC ACID COMPOUNDS USEFUL AS ANTIBACTERIAL AGENTS” (priority 1990, dated 1992).
Values after ≈ are worked out from the molar mass of the structure shown.

Assays:
Test in all cases: Microbroth dilution (MHB) method, NCCLS M7-A2
[1] = test system: Enterobacter cloacae S-130; assay type: cell-based; conditions: Enterobacter cloacae, S130, Ecl S-130, inoculum 5 x 10^5 cfu/ml, 35 °C/18 hr, read-out: MIC
Protocol: (§1) The test organisms were obtained from ATCC and clinical laboratories. The 96-well microtitre plates containing […] of serially diluted test compounds in Mueller Hinton Broth (MHB) (conc. range 64-0.03 µg/ml) were inoculated with […] of bacterial suspension in MHB so that an inoculum size of 5 x 10^5 cfu/ml was achieved.
(§2) EC. (S- 63): Eschericia coli Ecl. (S- 130): Enterobacter cloacae Pa. (S- 67): Pseudomonas aeruginosa Kp. (S- 80): Klebsiella pneumoniae Pr.
(§3) Microbroth Dilution (MHB) method; Inoculum, 5 x 10^5 cfu/ml; Incubation 35 °C/18 hr

Eschericia coli S-63 = assay type: cell-based; conditions: Ec S-63, inoculum 5 x 10^5 cfu/ml, 35 °C/18 hr, read-out: MIC
Protocol: as §1, §2, §3

[2] = test system: Klebsiella pneumoniae S-80; assay type: cell-based; conditions: Klebsiella pneumoniae, S80; Kp S-80; MHB; inoculum 5 x 10^5 cfu/ml; 35 °C/18 hr; read-out: MIC
Protocol: as §1, §2, §3

[3] = test system: Providencia rettgeri S-121; assay type: cell-based; conditions: Providencia rettgeri, S121, Pr S-121, inoculum 5 x 10^5 cfu/ml, 35 °C/18 hr, read-out: MIC
Protocol: as §1, §2, §3

[4] = test system: Pseudomonas aeruginosa S-67; assay type: cell-based; conditions: Pseudomonas aeruginosa, S67; Pa S-67; MHB; inoculum 5 x 10^5 cfu/ml; 35 °C/18 hr; read-out: MIC
Protocol: as §1, §2, §3

[5] = test system: Staphylococcus aureus S-127; assay type: cell-based; conditions: Staphylococcus aureus, S127, Sa S-127, inoculum 5 x 10^5 cfu/ml, 35 °C/18 hr, read-out: MIC
Protocol: as §1, §2, §3

Sa 127M = assay type: cell-based, Staphylococcus aureus; conditions: Staphylococcus aureus, inoculum 5 x 10^5 cfu/ml, 35 °C/18 hr, read-out: MIC
Protocol: as §1, §2, §3

Cc1c(F)c(N2CCC(n3ccnn3)C2)c(F)c2c1c(=O)c(C(=O)O)cn2C1CC1 (stereo not drawn) [Example 24, 1-Cyclopropyl-6,8-difluoro-5-methyl-7-[3-(1,2,3-triazol-1-yl)pyrrolidin-1-yl]-1,4-dihydro-4-oxo-quinoline-3-carboxylic acid]
MIC [1]: 0.25 µg/mL (≈ 0.602 µM)
MIC (Eschericia coli S-63): 0.12 µg/mL (≈ 0.289 µM)
MIC [2]: 0.5 µg/mL (≈ 1.2 µM)
MIC [3]: 0.5 µg/mL (≈ 1.2 µM)
MIC [4]: 4 µg/mL (≈ 9.63 µM)
MIC [5]: ≤ 0.015 µg/mL
MIC (Sa 127M): ≤ 0.015 µg/mL

O=C(O)c1cn(C2CC2)c2c(F)c(N3CCC(n4ccnn4)C3)c(F)c(F)c2c1=O (stereo not drawn) [Example 49, 1-cyclopropyl-5,6,8-trifluoro-7-[3-(1,2,3-triazol-1-yl)-pyrrolidin-1-yl]-1,4-dihydro-4-oxo-quinoline-3-carboxylic acid]
MIC [1]: 0.5 µg/mL (≈ 1.19 µM)
MIC (Eschericia coli S-63): 0.5 µg/mL (≈ 1.19 µM)
MIC [2]: 0.5 µg/mL (≈ 1.19 µM)
MIC [3]: 0.12 µg/mL (≈ 0.286 µM)
MIC [4]: 8 µg/mL (≈ 19.1 µM)
MIC [5]: 0.25 µg/mL (≈ 0.596 µM)
MIC (Sa 127M): 0.25 µg/mL (≈ 0.596 µM)

Cc1cn(C2CCN(c3c(F)cc4c(=O)c(C(=O)O)cn(C5CC5)c4c3F)C2)nn1 (stereo not drawn) [Example 27, 1-Cyclopropyl-6,8-difluoro-7-[3-(4-methyl-1,2,3-triazol-1-yl)pyrrolidin-1-yl]-1,4-dihydro-4-oxo-quinoline-3-carboxylic acid]
MIC [1]: 1 µg/mL (≈ 2.41 µM)
MIC (Eschericia coli S-63): 0.25 µg/mL (≈ 0.602 µM)
MIC [2]: 0.5 µg/mL (≈ 1.2 µM)
MIC [3]: 2 µg/mL (≈ 4.81 µM)
MIC [4]: 4 µg/mL (≈ 9.63 µM)
MIC [5]: 0.125 µg/mL (≈ 0.301 µM)
MIC (Sa 127M): 0.25 µg/mL (≈ 0.602 µM)

Nc1c(F)c(N2CCC(n3cc(-c4ccccc4)nn3)C2)c(F)c2c1c(=O)c(C(=O)O)cn2C1CC1 (stereo not drawn) [Example 47, 5-amino-1-cyclopropyl-6,8-difluoro-7-[3-(4-phenyl-1,2,3-triazol-1-yl)-pyrrolidin-1-yl]-1,4-dihydro-4-oxo-quinoline-3-carboxylic acid]
MIC [1]: 16 µg/mL (≈ 32.5 µM)
MIC (Eschericia coli S-63): 0.25 µg/mL (≈ 0.508 µM)
MIC [2]: 0.5 µg/mL (≈ 1.02 µM)
MIC [3]: 0.015 µg/mL (≈ 0.0305 µM)
MIC [4]: > 32 µg/mL
MIC [5]: 0.015 µg/mL (≈ 0.0305 µM)
MIC (Sa 127M): 0.015 µg/mL (≈ 0.0305 µM)

Cc1cn(C2CCN(c3c(F)c(C)c4c(=O)c(C(=O)O)cn(C5CC5)c4c3F)C2)nn1 (stereo not drawn) [Example 21, 1-Cyclopropyl-6,8-difluoro-5-methyl-7-[3-(4-methyl-1,2,3-triazol-1-yl)pyrrolidin-1-yl]-1,4-dihydro-4-oxo-quinoline-3-carboxylic acid]
MIC [1]: 0.25 µg/mL (≈ 0.582 µM)
MIC (Eschericia coli S-63): 0.06 µg/mL (≈ 0.14 µM)
MIC [2]: 0.25 µg/mL (≈ 0.582 µM)
MIC [3]: 0.12 µg/mL (≈ 0.279 µM)
MIC [4]: 2 µg/mL (≈ 4.66 µM)
MIC [5]: 0.015 µg/mL (≈ 0.0349 µM)
MIC (Sa 127M): 0.015 µg/mL (≈ 0.0349 µM)

CCn1cc(C(=O)O)c(=O)c2cc(F)c(N3CCNCC3)cc21 [MFLX, Norfloxacin, reference compound]
MIC [1]: 0.12 µg/mL (≈ 0.376 µM)
MIC (Eschericia coli S-63): 0.06 µg/mL (≈ 0.188 µM)
MIC [2]: 0.12 µg/mL (≈ 0.376 µM)
MIC [3]: 1 µg/mL (≈ 3.13 µM)
MIC [4]: 1 µg/mL (≈ 3.13 µM)
MIC [5]: 1 µg/mL (≈ 3.13 µM)
MIC (Sa 127M): 16 µg/mL (≈ 50.1 µM)

Nc1cn(C2CCN(c3c(F)cc4c(=O)c(C(=O)O)cn(C5CC5)c4c3F)C2)nn1 (stereo not drawn) [Example 42, 1-Cyclopropyl-6,8-difluoro-7-(3-(4-amino-1,2,3-triazol-1-yl)-pyrrolidin-1-yl)-1,4-dihydro-4-oxo-quinoline-3-carboxylic acid]
MIC [1]: 1 µg/mL (≈ 2.4 µM)
MIC (Eschericia coli S-63): 0.5 µg/mL (≈ 1.2 µM)
MIC [2]: 1 µg/mL (≈ 2.4 µM)
MIC [3]: 1 µg/mL (≈ 2.4 µM)
MIC [4]: 4 µg/mL (≈ 9.61 µM)
MIC [5]: 0.25 µg/mL (≈ 0.6 µM)
MIC (Sa 127M): 1 µg/mL (≈ 2.4 µM)

Cc1c(F)c(N2CCC(n3cncn3)C2)c(F)c2c1c(=O)c(C(=O)O)cn2C1CC1 (stereo not drawn) [Example 23, 1-Cyclopropyl-6,8-difluoro-5-methyl-7-[3-(1,2,4-triazol-1-yl)pyrrolidin-1-yl]-1,4-dihydro-4-oxo-quinoline-3-carboxylic acid]
MIC [1]: 0.25 µg/mL (≈ 0.602 µM)
MIC (Eschericia coli S-63): 0.12 µg/mL (≈ 0.289 µM)
MIC [2]: 0.5 µg/mL (≈ 1.2 µM)
MIC [3]: 0.5 µg/mL (≈ 1.2 µM)
MIC [4]: 4 µg/mL (≈ 9.63 µM)
MIC [5]: ≤ 0.015 µg/mL
MIC (Sa 127M): ≤ 0.015 µg/mL

Cc1cnnn1C1CCN(c2c(F)cc3c(=O)c(C(=O)O)cn(C4CC4)c3c2F)C1 (stereo not drawn) [Example 22, 1-Cyclopropyl-6,8-difluoro-7-[3-(5-methyl-1,2,3-triazol-1-yl)pyrrolidin-1-yl]-1,4-dihydro-4-oxo-quinoline-3-carboxylic acid]
MIC [1]: 0.25 µg/mL (≈ 0.602 µM)
MIC (Eschericia coli S-63): 0.25 µg/mL (≈ 0.602 µM)
MIC [2]: 0.5 µg/mL (≈ 1.2 µM)
MIC [3]: 0.25 µg/mL (≈ 0.602 µM)
MIC [4]: 4 µg/mL (≈ 9.63 µM)
MIC [5]: ≤ 0.015 µg/mL
MIC (Sa 127M): 0.12 µg/mL (≈ 0.289 µM)
